According to patent publication US20140213575A1, “6H-Thieno[3,2-f][1,2,4]triazolo[4,3-a][1,4]diazepines” (BAYER INTELLECTUAL PROPERTY GMBH, priority 2011, published 2014):

Assays:
[1] = molecular target: T1, BRD4(1) (Homo sapiens, UniProt O60885); experiment: Binding assay BRD4/acetylated peptide H4 (TR-FRET/HTRF protein-protein interaction assay); settings: inhibition of interaction BRD4(1) / acetylated histone H4 peptide, TR-FRET
T1 construct: BRD4(1) (amino acids 44-168); made in house; host or cells: E. coli
Text: Binding Assay BRD4/Acetylated Peptide H4 (“PRQ”)
To assess the BRD4 binding strength of the substances described in this application, their capacity for dose-dependent inhibition of the interaction between BRD4 and acetylated histone H4 was quantified.
For this purpose, a time-resolved fluorescence resonance energy transfer (TR-FRET) assay was used, which measures the binding between N-terminally His6-tagged BRD4(1) (amino acids 44-168) and a synthetic acetylated histone H4 (Ac-H4) peptide with the sequence GRGK(Ac)GGK(Ac)GLGK(Ac)GGAK(Ac)RHGSGSK-biotin. The recombinant BRD4 protein (produced in-house) was expressed in E. coli and was purified by (Ni-NTA) affinity chromatography and (Sephadex G-75) size-exclusion chromatography. The Ac-H4 peptide can be purchased for example from Biosyntan (Berlin, Germany).
In the assay, typically 11 different concentrations of each substance (0.1 nM, 0.33 nM, 1.1 nM, 3.8 nM, 13 nM, 44 nM, 0.15 μM, 0.51 μM, 1.7 μM, 5.9 μM and 20 μM) were measured as duplicates on the same microtitre plate. For this, 100-fold concentrated solutions in DMSO were prepared by serial dilutions (1:3.4) of a 2 mM stock solution in a clear, 384-well microtitre plate (Greiner Bio-One, Frickenhausen, Germany). From this, 50 nl was transferred to a black assay plate (Greiner Bio-One, Frickenhausen, Germany). The assay was started by supplying 2 μl of a 2.5-fold concentrated BRD4 solution (usually 10 to 50 nM final concentration in the 5 μl of the reaction volume) in aqueous assay buffer [50 mM HEPES pH 7.5, 50 mM sodium chloride (NaCl), 0.25 mM CHAPS and 0.05% serum albumin (BSA)] to the substances in the assay plate. This was followed by a 10-minute incubation step at 22° C. for the pre-equilibration of putative complexes between BRD4 and the substances.
The mixture was then incubated in the dark for one hour at 22° C. and then overnight at 4° C. The formation of BRD4/Ac-H4 complexes was determined by measuring the resonance energy transfer from the streptavidin-Eu-cryptate to the anti-6His-XL665 antibody that is present in the reaction. For this, the fluorescence emissions at 620 nm and 665 nm were measured after excitation at 330-350 nm in a TR-FRET measuring instrument, e.g. a Rubystar or Pherastar (both from BMG Lab Technologies, Offenburg, Germany) or a Viewlux (Perkin-Elmer). The ratio of the emissions at 665 nm and at […] was taken as an indicator of the amount of BRD4/Ac-H4 complexes formed.
The data obtained (ratio) were normalized, wherein 0% inhibition corresponded to the mean value from the measured values of a set of controls (usually 32 data points), in which all reagents were contained. 50 nl DMSO (100%) was used instead of test substances. Inhibition of 100% corresponded to the mean value from the measured values of a set of controls (usually 32 data points), in which all reagents except BRD4 were contained. The IC50 value was determined by regression analysis based on a 4-parameter equation (minimum, maximum, IC50, Hill; Y=Max+(Min−Max)/(1+(X/IC50)^Hill)) using Bayer's own analysis software.

[2] = system: MOLM-13 cells; experiment: Cellular proliferation assay (alamarBlue) MOLM-13; type: cell-based; settings: Homo sapiens, 96 hours, read-out: Leukaemia MOLM-13 IC50
Protocol: (§1) In accordance with the invention, the ability of the substances to inhibit the proliferation of various cell lines was determined. Cell viability was determined by means of the alamarBlue® reagent (Invitrogen). […] After incubation overnight at 37° C., the fluorescence values were determined (CI values). […] Then the fluorescence values were determined (CO values).
(§2) The substances were investigated in the cell lines in Table 1, which for example represent the stated indications: […]

[3] = system: LAPC-4 cells; experiment: Cellular proliferation assay (alamarBlue) LAPC-4; type: cell-based; settings: Homo sapiens, LAPC4, 168 hours, read-out: Prostate LAPC-4 IC50
Protocol: as §1, §2

[4] = system: VCaP cells; experiment: Cellular proliferation assay (alamarBlue) VCaP; type: cell-based; settings: Homo sapiens, 168 hours, read-out: Prostate VCaP IC50
Protocol: as §1, §2

[5] = system: LNCaP cells; experiment: Cellular proliferation assay (alamarBlue) LNCaP; type: cell-based; settings: Homo sapiens, 168 hours, read-out: Prostate LNCaP IC50
Protocol: as §1, §2

[6] = system: MCF-7 cells; experiment: Cellular proliferation assay (alamarBlue) MCF-7; type: cell-based; settings: Homo sapiens, MCF7, 96 hours, read-out: Breast MCF-7 IC50
Protocol: as §1, §2

[7] = system: MDA-MB-231 cells; experiment: Cellular proliferation assay (alamarBlue) MDA-MB-231; type: cell-based; settings: Homo sapiens, 96 hours, read-out: Breast MDA-MB-231 IC50
Protocol: as §1, §2

[8] = system: HeLa-MaTu cells; experiment: Cellular proliferation assay (alamarBlue) HeLa-MaTu; type: cell-based; settings: 96 hours, read-out: Cervix HeLa-MaTu IC50
Protocol: as §1, §2

[9] = system: B16F10 cells; experiment: Cellular proliferation assay (alamarBlue) B16F10; type: cell-based; settings: Mus musculus, B16-F10, 96 hours, read-out: Melanoma B16F10 IC50
Protocol: as §1, §2

[10] = system: MOLP-8 cells; experiment: Cellular proliferation assay (alamarBlue) MOLP-8; type: cell-based; settings: Homo sapiens, 120 hours, read-out: Multiple myeloma MOLP-8 IC50
Protocol: as §1, §2

Structure (SMILES) | IC50 [1] | IC50 [2] | IC50 [3] | IC50 [4] | IC50 [5] | IC50 [6] | IC50 [7] | IC50 [8] | IC50 [9] | IC50 [10]
Cc1sc2c(c1C)C(c1ccc(Cl)cc1)=N[C@@H](CC(=O)NC1C[C@H]3CCC[C@@H](C1)N3)c1nnc(C)n1-2 (stereo partly drawn) [Example 4, N-[(1R,5S)-9-Azabicyclo[3.3.1]non-3-yl]-2-[(S)-4-(4-chlorophenyl)-2,3,9-trimethyl-6H-thieno[3,2-f][1,2,4]triazolo[4,3-a][1,4]diazepin-6-yl]acetamide] | 15 nM | 57 nM | 228 nM | 71 nM | 353 nM | 300 nM | 604 nM | 753 nM | 1050 nM | 240 nM
Cc1sc2c(c1C)C(c1ccc(Cl)cc1)=N[C@@H](CC(=O)NC1C[C@H]3CCC[C@@H](C1)N3C(=O)OC(C)(C)C)c1nnc(C)n1-2 (stereo partly drawn) [Example 3, (1R,5S)-tert-Butyl-3-({2-[(S)-4-(4-chlorophenyl)-2,3,9-trimethyl-6H-thieno[3,2-f][1,2,4]triazolo[4,3-a][1,4]diazepin-6-yl]acetyl}amino)-9-azabicyclo[3.3.1]nonane-9-carboxylate] | 240 nM | 83 nM | 41 nM | 65 nM | 17 nM | 20 nM | 129 nM | 40 nM | 29 nM | 170 nM
Cc1sc2c(c1C)C(c1ccc(Cl)cc1)=N[C@@H](CC(=O)N1CC3CCC(C1)O3)c1nnc(C)n1-2 [Example 5, 2-[(S)-4-(4-Chlorophenyl)-2,3,9-trimethyl-6H-thieno[3,2-f][1,2,4]triazolo[4,3-a][1,4]diazepin-6-yl]-1-(8-oxa-3-azabicyclo[3.2.1]oct-3-yl)ethan-1-one] | 78 nM | 127 nM | 65 nM | 67 nM | 40 nM | 93 nM | 138 nM | 331 nM | 91 nM | 120 nM
Cc1sc2c(c1C)C(c1ccc(Cl)cc1)=N[C@@H](CC(=O)N1CC3CCC1CC3)c1nnc(C)n1-2 [Example 8, (S)-1-(2-Azabicyclo[2,2,2]oct-2-yl)-2-[(6S)-4-(4-chlorophenyl)-2,3,9-trimethyl-6H-thieno[3,2-j][1,2,4]triazolo[4,3-a][1,4]diazepin-6-yl]ethanone] | 84 nM | 1060 nM | 133 nM | – | – | – | 363 nM | – | 297 nM | –
Cc1sc2c(c1C)C(c1ccc(Cl)cc1)=N[C@@H](CC(=O)N1C3CCC1CC3)c1nnc(C)n1-2 [Example 9, (S)-1-(7-Azabicyclo[2.2.1]hept-7-yl)-2-[(6S)-4-(4-chlorophenyl)-2,3,9-trimethyl-6H-thieno[3,2-f][1,2,4]triazolo[4,3-a][1,4]diazepin-6-yl]ethanone] | 75 nM | 838 nM | 88 nM | – | – | – | 291 nM | – | 414 nM | –
Cc1sc2c(c1C)C(c1ccc(Cl)cc1)=N[C@@H](CC(=O)N1CCC3(COC3)C1)c1nnc(C)n1-2 [Example 6, 2-[(S)-4-(4-Chlorophenyl)-2,3,9-trimethyl-6H-thieno[3,2-f][1,2,4]triazolo[4,3-a][1,4]diazepin-6-yl]-1-(2-oxa-6-azaspiro[3.4]oct-6-yl)ethan-1-one] | 29 nM | 131 nM | 72 nM | 65 nM | 36 nM | 98 nM | 122 nM | 251 nM | 87 nM | 110 nM
Cc1sc2c(c1C)C(c1ccc(Cl)cc1)=N[C@@H](CC(=O)N1CCC3(CC1)COC3)c1nnc(C)n1-2 [Example 7] | 32 nM | 68 nM | 32 nM | 35 nM | 102 nM | 59 nM | 69 nM | 167 nM | 48 nM | 51 nM
